{"source": "patent US6204262A", "about": "“1,3-Benzodiazepin-2-ones and 1,3-Benzoxazepin-2-ones useful as HIV reverse transcriptase inhibitors” (DuPont Pharmaceuticals Company, priority 1999, dated 2001)", "system": "HIV-1 (RF)", "test": "Microplate based compound evaluation in HIV-1 infected MT-2 cells (HIV RNA assay)", "assay_type": "cell-based", "details": "Human immunodeficiency virus 1, MT2, 72 h; HIV-1 (RF) infected MT-2 cells, 3 days at 37° C.; virus inoculum standardized on ddC; read-out: IC90 value (concentration of compound required to reduce the HIV RNA level by 90%)", "protocol": "Plasmid pDAB 72 containing both gag and pol sequences of BH10 (bp 113-1816) cloned into PTZ 19R was prepared according to Erickson-Viitanen et al. AIDS Research and Human Retroviruses 1989, 5, 577. The plasmid was linearized with Bam HI prior to the generation of in vitro RNA transcripts using the Riboprobe Gemini system II kit (Promega) with T7 RNA polymerase. Synthesized RNA was purified by treatment with RNase free DNAse (Promega), phenol-chloroform extraction, and ethanol precipitation. RNA transcripts were dissolved in water, and stored at -70° C. The concentration of RNA was determined from the A260.\nBiotinylated capture probes were purified by HPLC after synthesis on an Applied Biosystems (Foster City, Calif.) DNA synthesizer by addition of biotin to the 5' terminal end of the oligonucleotide, using the biotin-phosphoramidite reagent of Cocuzza, Tet. Lett. 1989, 30, 6287. […]\nMT-2 and MT-4 cells were maintained in RPMI 1640 supplemented with 5% fetal calf serum (FCS) for MT-2 cells or 10% FCS for MT-4 cells, 2 mM L-glutamine and 50 μg/mL gentamycin, all from Gibco. […] Infectious titers of HIV-1(RF) stocks were 1-3×10^7 PFU (plaque forming units)/mL as measured by plaque assay on MT-2 cells (see below). […]", "data": [{"smiles": "Nc1ccn([C@H]2CC[C@@H](CO)O2)c(=O)n1", "note": "[ddC, 2',3'-dideoxycytidine]", "values": [{"measurement": "IC90", "result": 0.2, "unit": "µg/mL"}]}]}
